{
  "source": "ChEMBL document CHEMBL3045439",
  "about": "“Isoforms of the heteropteran Nezara viridula ecdysone receptor: protein characterisation, RH5992 insecticide binding and homology modelling” (Pest Manag Sci, 2011)",
  "type_in_all_cases": "protein-complex assay",
  "key": {"Ecdysone receptor [1]": {"target": "T1, Ecdysone receptor (Aedes aegypti, UniProt P49880+Q9GSG8)", "T1 sequence (P49880 whole entry)": "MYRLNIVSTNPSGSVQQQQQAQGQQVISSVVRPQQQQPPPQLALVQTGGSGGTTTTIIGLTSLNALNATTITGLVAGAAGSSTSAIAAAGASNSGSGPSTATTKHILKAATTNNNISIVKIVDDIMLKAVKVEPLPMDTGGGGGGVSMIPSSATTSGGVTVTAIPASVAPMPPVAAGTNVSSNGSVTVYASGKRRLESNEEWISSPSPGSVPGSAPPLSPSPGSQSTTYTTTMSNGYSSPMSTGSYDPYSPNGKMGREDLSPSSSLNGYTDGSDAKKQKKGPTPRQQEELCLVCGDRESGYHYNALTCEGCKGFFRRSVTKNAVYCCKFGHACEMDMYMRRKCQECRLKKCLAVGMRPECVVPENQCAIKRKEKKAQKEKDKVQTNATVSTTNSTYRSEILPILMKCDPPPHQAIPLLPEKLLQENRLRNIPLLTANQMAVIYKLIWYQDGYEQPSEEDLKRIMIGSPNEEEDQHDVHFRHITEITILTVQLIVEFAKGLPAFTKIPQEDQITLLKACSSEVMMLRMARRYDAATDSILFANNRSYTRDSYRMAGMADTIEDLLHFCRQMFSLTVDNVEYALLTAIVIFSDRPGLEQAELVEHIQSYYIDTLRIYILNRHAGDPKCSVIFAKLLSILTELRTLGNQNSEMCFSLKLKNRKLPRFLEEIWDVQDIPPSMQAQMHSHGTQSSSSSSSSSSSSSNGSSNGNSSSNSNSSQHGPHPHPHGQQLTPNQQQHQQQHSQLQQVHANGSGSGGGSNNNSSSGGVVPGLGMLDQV", "T1 sequence (Q9GSG8 whole entry)": "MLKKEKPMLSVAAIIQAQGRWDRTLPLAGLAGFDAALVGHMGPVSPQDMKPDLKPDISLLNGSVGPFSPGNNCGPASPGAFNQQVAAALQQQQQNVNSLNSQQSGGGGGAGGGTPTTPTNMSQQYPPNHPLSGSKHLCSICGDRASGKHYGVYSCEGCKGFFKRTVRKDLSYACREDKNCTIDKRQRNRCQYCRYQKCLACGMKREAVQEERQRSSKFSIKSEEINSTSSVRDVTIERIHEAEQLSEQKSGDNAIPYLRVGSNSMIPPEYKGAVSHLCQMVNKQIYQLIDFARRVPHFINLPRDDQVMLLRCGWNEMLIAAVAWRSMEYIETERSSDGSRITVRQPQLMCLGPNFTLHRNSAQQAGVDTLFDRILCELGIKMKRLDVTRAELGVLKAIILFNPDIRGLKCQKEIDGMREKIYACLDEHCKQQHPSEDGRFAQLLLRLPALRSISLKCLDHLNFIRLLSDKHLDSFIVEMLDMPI", "experiment": "Binding affinity to Aedes aegypti EcR"}, "Ecdysone receptor [2]": {"target": "T2, Ecdysone receptor (Chilo suppressalis, UniProt Q8I1M8+Q8MYA6)", "T2 sequence (Q8MYA6 whole entry)": "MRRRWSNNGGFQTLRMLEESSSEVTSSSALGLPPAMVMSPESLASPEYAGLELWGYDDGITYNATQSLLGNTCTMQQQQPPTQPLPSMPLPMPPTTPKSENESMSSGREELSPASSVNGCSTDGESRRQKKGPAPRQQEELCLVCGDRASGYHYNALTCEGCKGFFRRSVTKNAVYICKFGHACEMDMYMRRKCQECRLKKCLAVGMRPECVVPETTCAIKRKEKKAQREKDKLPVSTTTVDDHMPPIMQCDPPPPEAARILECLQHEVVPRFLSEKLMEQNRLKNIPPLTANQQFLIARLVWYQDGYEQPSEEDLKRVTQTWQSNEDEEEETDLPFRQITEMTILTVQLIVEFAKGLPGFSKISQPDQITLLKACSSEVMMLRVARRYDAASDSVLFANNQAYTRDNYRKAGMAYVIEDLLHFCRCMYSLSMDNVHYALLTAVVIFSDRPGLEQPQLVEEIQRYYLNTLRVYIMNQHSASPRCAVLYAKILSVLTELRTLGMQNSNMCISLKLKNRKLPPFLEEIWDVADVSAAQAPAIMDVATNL", "T2 sequence (Q8I1M8 whole entry)": "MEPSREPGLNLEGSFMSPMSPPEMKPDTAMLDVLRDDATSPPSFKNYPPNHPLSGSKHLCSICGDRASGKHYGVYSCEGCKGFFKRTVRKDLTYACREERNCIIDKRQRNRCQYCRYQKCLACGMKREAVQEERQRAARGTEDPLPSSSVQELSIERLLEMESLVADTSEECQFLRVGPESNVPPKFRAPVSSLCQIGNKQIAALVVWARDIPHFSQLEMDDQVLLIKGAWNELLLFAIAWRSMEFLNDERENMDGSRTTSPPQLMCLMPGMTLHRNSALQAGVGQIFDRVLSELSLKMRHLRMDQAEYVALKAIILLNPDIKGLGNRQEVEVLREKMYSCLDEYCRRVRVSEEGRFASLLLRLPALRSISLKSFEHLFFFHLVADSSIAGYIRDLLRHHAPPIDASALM", "experiment": "Binding affinity to Chilo suppressalis (rice stem borer) EcR"}, "Ecdysone receptor [3]": {"target": "T3, Ecdysone receptor (Anthonomus grandis, UniProt B8RG26+Q4W6C8)", "T3 sequence (B8RG26 whole entry)": "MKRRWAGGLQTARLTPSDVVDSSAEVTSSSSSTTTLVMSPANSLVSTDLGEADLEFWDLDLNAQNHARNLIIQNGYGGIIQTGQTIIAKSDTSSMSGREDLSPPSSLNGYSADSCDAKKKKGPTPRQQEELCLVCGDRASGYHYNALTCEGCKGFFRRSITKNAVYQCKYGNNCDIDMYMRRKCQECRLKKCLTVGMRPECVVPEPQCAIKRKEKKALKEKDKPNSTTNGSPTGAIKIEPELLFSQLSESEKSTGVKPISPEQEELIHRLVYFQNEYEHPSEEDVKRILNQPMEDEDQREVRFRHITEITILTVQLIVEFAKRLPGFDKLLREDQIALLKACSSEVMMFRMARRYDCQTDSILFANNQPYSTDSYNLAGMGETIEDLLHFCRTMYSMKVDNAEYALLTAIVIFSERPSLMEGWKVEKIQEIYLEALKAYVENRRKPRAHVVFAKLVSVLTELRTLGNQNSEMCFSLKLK", "T3 sequence (Q4W6C8 whole entry)": "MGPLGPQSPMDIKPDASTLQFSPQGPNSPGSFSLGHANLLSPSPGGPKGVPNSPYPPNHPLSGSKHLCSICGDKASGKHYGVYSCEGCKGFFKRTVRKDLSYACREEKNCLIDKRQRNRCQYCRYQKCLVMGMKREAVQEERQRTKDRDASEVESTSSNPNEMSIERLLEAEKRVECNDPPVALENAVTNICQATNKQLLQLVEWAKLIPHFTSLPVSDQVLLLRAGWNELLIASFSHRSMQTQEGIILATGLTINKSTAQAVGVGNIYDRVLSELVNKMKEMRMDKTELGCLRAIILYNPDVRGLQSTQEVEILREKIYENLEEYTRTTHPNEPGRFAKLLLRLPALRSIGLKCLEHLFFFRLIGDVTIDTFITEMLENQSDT", "experiment": "Binding affinity to Anthonomus grandis ecdysone receptor (EcR)"}},
  "data": [
    {"smiles": "CCc1ccc(C(=O)NN(C(=O)c2cc(C)cc(C)c2)C(C)(C)C)cc1", "note": "[TEBUFENOZIDE]", "values": [
      {"measurement": "Ki", "setting": "Ecdysone receptor [1]", "result": 25.1, "unit": "nM"},
      {"measurement": "Ki", "setting": "Ecdysone receptor [2]", "result": 1.26, "unit": "nM"},
      {"measurement": "Ki", "setting": "Ecdysone receptor [3]", "result": 12600, "unit": "nM"}
    ]}
  ]
}
